Data taken from patent publication US20230183640A1, “METABOLIC INHIBITORS WITH EFFICACY FOR INHIBITING SULFIDE PRODUCTION IN HARSH ENVIRONMENTS” (MC (US) 3 LLC, priority 2020, published 2023).

What was measured:
[1] = test system: Desulfovibrio alaskensis 14563; test: H2S and Log (Growth) efficacy against SRB, 96-Well Plate Method; type: cell-based
Description: A lyophilized Desulfovibrio alaskensis 14563, Desulfovibrio longus 51456, and Desulfovibrio gabonensis 700201 pure cultures received from ATCC were resuspended individually in 500 ul of MB 1250. Aseptically, the content was transferred to a 5-mL tube of MB1250 medium. The cultures were incubated in an anaerobic chamber at 30° C. for 72 hrs. Subsequently, an individual stock culture with a final concentration of 25% glycerol were prepared by adding equal volumes of culture and 50% glycerol. 1 ml of the cultures were then transferred to 2-ml cryogenic vials and stored at −80° C. The purity of the stock cultures was evaluated through PCR, by amplifying the 16S rDNA region, and thus, it was verified that the original ATCC sample was a pure culture. 48-hour cultures of ATCC Desulfovibrio alaskensis 14563, Desulfovibrio longus 51456, and Desulfovibrio gabonensis 700201 were prepared in an anaerobic chamber. Each culture was prepared as a 1:10 culture by taking 1 milliliter (mL) of a pure culture and inoculating 9 milliliters (mL) of fresh MB1250 media. The Desulfovibrio alaskensis 14563 and Desulfovibrio gabonensis 700201 were all grown at 30° C. and the Desulfovibrio longus 51456 culture was grown at 35° C.
After the 48-hour incubation, 600 microliters (μL) were taken from each culture and optical density (OD) was measured using a Thermofisher Spectronic 200 Spectrophotometer at 600 nm. Each culture was diluted to 0.05 OD600 in fresh MB1250 media and added to the 96 well plates. Edge wells were not used due to their inherent variability and evaporation of the media. Each of the components were added at their respective concentrations for a final volume of 500 μL per well. In Table 3, 6 and 7, the concentrations of the compound used for the experiments are listed. Each experiment was done with at least three replicates for different treatments and non-treatment controls. […] Plates were then sealed with a titer-top and placed into anaerobic boxes and incubated in an anaerobic incubator at 30° C.
At each time point, sulfide samples were taken, and enumeration plates were made. Enumeration plates were made to determine the log growth in each dosed sample. For this process, enumeration plates were prepared by adding 180 μL fresh media MB1250 containing 0.01 wt % ferrous ammonium sulfate. 20 μL was taken from each well of the challenge plates and transferred to the enumeration plates using a 20-200 μL multichannel pipette. Enumeration plates were mixed three times using the multichannel pipette and serial diluted down the plate tenfold (20 μL into 180 μL). This serial dilution process was repeated for all challenge plate rows giving a total of 6 enumeration plates.
After 7 days these enumeration plates were read. The ferrous ammonium sulfate in each plate would be converted to iron sulfide, changing wells with SRB growth from clear to black. By counting the number of black wells in a row, the log growth from the original well in the challenge plate can be determined.
To determine hydrogen sulfide production in each sample, sulfide samples were also taken from each challenge plate. From each well, 9 μL were taken and added to 60 μL of 2% zinc acetate with 0.02% acetic acid. Then, 180 μL of milliQ water was added. 60 μL of stock solution 1 containing 64% sulfuric acid, <1% Dimethyl-4-phenylenediamine (DMPD), water to 100% was added to each well on the plates. This was followed by 3 μL of stock solution 3 containing 50% Iron (III) chloride. All chemicals are ordered from Fisher Scientific and used as received. These were mixed three times and read after 15 minutes. The plates were read at 670 nm using a Biotek microplate reader. Absorbance readings were converted to mM using a standard curve and this was converted to parts per million using the molar mass of sulfur. The standard curves were made using sodium sulfide nonahydrate solutions to give final solutions of 0, 0.125, 0.25 0.5, 1.0, and 1.5 ppm.

[2] = test system: sulfate reducing bacteria; test: Efficacy in inhibiting H2S production from sulfate reducing bacteria; type: cell-based
Description: To understand the hydrogen sulfide inhibition efficacy of the N-hydroxycarboxamide compounds of the present invention, several compounds were tested. Some compounds that can be used in this H2S inhibiting composition are disclosed in Table 2. For the testing procedures, the compounds were dissolved in DMSO, resulting in a stock solution of about 8000-100000 ppm, which was subsequently diluted in 96-well plates or 10 mL serum vials containing media and selected culture to give varying concentrations from 0.09 to 1000 ppm of the compounds in final solution for efficacy testing.
Strains of commonly found bacteria were used for testing the efficacy of the compounds, viz. Desulfovibrio alaskensis, Desulfovibrio longus and Desulfovibrio gabonensis. Media for the cultures was also prepared by using a standard method. The cultures were aseptically used and incubated under anaerobic conditions. Two well established methods were used for testing various compounds:
The compounds C1, C12, C14, C15 and C16 were tested individually to understand each of their efficacies in inhibiting the H2S production from sulfate reducing bacteria, under standard temperature and pressure conditions. The efficacy of compounds C14 and C15 against hydrogen sulfide production are disclosed in Example 1, Tables 6 and 7.

**Q.** How did the H2S ([1]; Table 6 run, 2 days, 7.615 PPM) turn out when `O=C(NO)c1ccccc1` [C15] was run?
**A.** 103.6 PPM

**Q.** And the “Log (Growth)” value ([1]; Table 6 run, 2 days, 7.615 PPM)?
**A.** 7.7

**Q.** What about the H2S ([1]; Table 6 run, 2 days, 15.75 PPM) of the same compound?
**A.** 54.7 PPM

**Q.** What about the “Log (Growth)” value ([1]; Table 6 run, 2 days, 15.75 PPM) of the same compound?
**A.** 7.7

**Q.** What about the H2S ([1]; Table 6 run, 2 days, 31.25 PPM) of the same compound?
**A.** 54.4 PPM

**Q.** What about the “Log (Growth)” value ([1]; Table 6 run, 2 days, 31.25 PPM) of the same compound?
**A.** 7.0

**Q.** And the H2S ([1]; Table 6 run, 2 days, 125 PPM)?
**A.** 130.2 PPM

**Q.** And the “Log (Growth)” value ([1]; Table 6 run, 2 days, 125 PPM)?
**A.** 7.3

**Q.** And the H2S ([1]; Table 6 run, 2 days, 500 PPM)?
**A.** 155.7 PPM

**Q.** What about the “Log (Growth)” value ([1]; Table 6 run, 2 days, 500 PPM) of the same compound?
**A.** 7.3

**Q.** What about the H2S ([1]; Table 6 run, 2 days, 1000 PPM) of the same compound?
**A.** 130.7 PPM

**Q.** What about the “Log (Growth)” value ([1]; Table 6 run, 2 days, 1000 PPM) of the same compound?
**A.** 8.0

**Q.** What about the H2S ([1]; Table 6 run, 5 days, 7.615 PPM) of the same compound?
**A.** 35.2 PPM

**Q.** And the “Log (Growth)” value ([1]; Table 6 run, 5 days, 7.615 PPM)?
**A.** 8.0

**Q.** What about the H2S ([1]; Table 6 run, 5 days, 15.75 PPM) of the same compound?
**A.** 42.7 PPM

**Q.** What about the “Log (Growth)” value ([1]; Table 6 run, 5 days, 15.75 PPM) of the same compound?
**A.** 7.3

**Q.** And the H2S ([1]; Table 6 run, 5 days, 31.25 PPM)?
**A.** 26.3 PPM

**Q.** What about the “Log (Growth)” value ([1]; Table 6 run, 5 days, 31.25 PPM) of the same compound?
**A.** 7.7

**Q.** What about the H2S ([1]; Table 6 run, 5 days, 125 PPM) of the same compound?
**A.** 55.5 PPM

**Q.** What about the “Log (Growth)” value ([1]; Table 6 run, 5 days, 125 PPM) of the same compound?
**A.** 7.0

**Q.** What about the H2S ([1]; Table 6 run, 5 days, 500 PPM) of the same compound?
**A.** 31.8 PPM

**Q.** What about the “Log (Growth)” value ([1]; Table 6 run, 5 days, 500 PPM) of the same compound?
**A.** 7.0

**Q.** What about the H2S ([1]; Table 6 run, 5 days, 1000 PPM) of the same compound?
**A.** 73.3 PPM

**Q.** What about the “Log (Growth)” value ([1]; Table 6 run, 5 days, 1000 PPM) of the same compound?
**A.** 8.0

**Q.** What about the “activity in reducing H2S production” value ([2]; Tables 6 and 7) of the same compound?
**A.** did not show significant activity

**Q.** `CCCCCCCC(=O)NO` [C16] was tested. Which H2S ([1]; Table 7 run, 2 days, 7.615 PPM) did it give?
**A.** 83.5 PPM

**Q.** And the “Log (Growth)” value ([1]; Table 7 run, 2 days, 7.615 PPM)?
**A.** 7.7

**Q.** What about the H2S ([1]; Table 7 run, 2 days, 15.75 PPM) of the same compound?
**A.** 76.9 PPM

**Q.** What about the “Log (Growth)” value ([1]; Table 7 run, 2 days, 15.75 PPM) of the same compound?
**A.** 7.7

**Q.** What about the H2S ([1]; Table 7 run, 2 days, 31.25 PPM) of the same compound?
**A.** 35.1 PPM

**Q.** What about the “Log (Growth)” value ([1]; Table 7 run, 2 days, 31.25 PPM) of the same compound?
**A.** 7.3

**Q.** And the H2S ([1]; Table 7 run, 2 days, 125 PPM)?
**A.** 13.3 PPM

**Q.** And the “Log (Growth)” value ([1]; Table 7 run, 2 days, 125 PPM)?
**A.** 6.3

**Q.** What about the H2S ([1]; Table 7 run, 2 days, 500 PPM) of the same compound?
**A.** 2.7 PPM

**Q.** What about the “Log (Growth)” value ([1]; Table 7 run, 2 days, 500 PPM) of the same compound?
**A.** 5.3

**Q.** What about the H2S ([1]; Table 7 run, 2 days, 1000 PPM) of the same compound?
**A.** 2.2 PPM

**Q.** And the “Log (Growth)” value ([1]; Table 7 run, 2 days, 1000 PPM)?
**A.** 3.0

**Q.** And the H2S ([1]; Table 7 run, 5 days, 7.615 PPM)?
**A.** 27.7 PPM

**Q.** What about the “Log (Growth)” value ([1]; Table 7 run, 5 days, 7.615 PPM) of the same compound?
**A.** 7.3

**Q.** And the H2S ([1]; Table 7 run, 5 days, 15.75 PPM)?
**A.** 29.2 PPM

**Q.** What about the “Log (Growth)” value ([1]; Table 7 run, 5 days, 15.75 PPM) of the same compound?
**A.** 7.0

**Q.** What about the H2S ([1]; Table 7 run, 5 days, 31.25 PPM) of the same compound?
**A.** 22.1 PPM

**Q.** What about the “Log (Growth)” value ([1]; Table 7 run, 5 days, 31.25 PPM) of the same compound?
**A.** 7.3

**Q.** What about the H2S ([1]; Table 7 run, 5 days, 125 PPM) of the same compound?
**A.** 6.9 PPM

**Q.** And the “Log (Growth)” value ([1]; Table 7 run, 5 days, 125 PPM)?
**A.** 5.0

**Q.** And the H2S ([1]; Table 7 run, 5 days, 500 PPM)?
**A.** 2.1 PPM

**Q.** What about the “Log (Growth)” value ([1]; Table 7 run, 5 days, 500 PPM) of the same compound?
**A.** 4.3

**Q.** And the H2S ([1]; Table 7 run, 5 days, 1000 PPM)?
**A.** 2.0 PPM

**Q.** What about the “Log (Growth)” value ([1]; Table 7 run, 5 days, 1000 PPM) of the same compound?
**A.** 0.0

**Q.** And the “efficacy for inhibiting hydrogen sulfide production” value ([2]; anaerobic conditions)?
**A.** high efficacy
